The values that follow are results of earlier work, collected in patent publication US6251886A, “Methods of using temozolomide in the treatment of cancers” (priority 1999, dated 2001).

Entries after “also recorded” stand apart in the source; their conditions may differ. Read-outs that look alike come from different tables or passages of the source.

The test system of series [1] is D456-MG human glioma xenograft.
The subject of series [2] is leptomeningeal medulloblastoma and pineoblastoma. To be noted: i.t., Phase I.
Series [3] concerns Mer- human MG xenograft.
The conditions of series [4]: clinical trials.
Series [5] has as its system brain tumors. To be noted: clinical trials, vs adjuvant BCNU.
The subject of series [6] is advanced melanoma. To be noted: Phase II, 60 patients with advanced melanoma.
The conditions of series [7]: common, but tolerable.
For series [8] the following is noted: known property.
The subject of series [9] is human CNS xenografts. Particulars: s.c. in athymic nude mice.
Series [10] has as its system advanced melanoma. To be noted: Phase I, patients with advanced melanoma.
The conditions of series [11]: oral therapy.
For series [12] the following is noted: systemic temozolomide, rat.
Series [13] has as its system murine tumors. To be noted: mouse, in vivo.
For series [14] the following is noted: systemic temozolomide, Rhesus monkeys.
Test in series [15]: not given
The source holds these as a separate data set.

[16] abbreviates: Phase I, single-dose i.v. and oral.

With `O=NN(CCCl)C(=O)NCCCl` [BCNU, 1,3-bis(2-chloroethyl)-1-nitrosourea], the “resistance of D456 to BCNU” value in series [1] is listed as “resistant”.
On to `N[C@@H](Cc1ccc(N(CCCl)CCCl)cc1)C(=O)O` [melphalan], for which the activity in patients entry in series [2] was “activity has been seen in patients with leptomeningeal medulloblastoma and pineoblastoma”.
In the case of `Cn1nnc2c(C(N)=O)ncn2c1=O` [microcrystalline temozolomide], in series [3], the “sensitivity to BCNU” value was “BCNU-sensitive”. The “resistance of D456 to BCNU” value in series [1] was “BCNU-resistant”.
As for `NC(=O)c1ncn2c(=O)n(CCCl)nnc12` [mitozolomide], the thrombocytopenia entry in series [4] is “severe and unpredictable thrombocytopenia”.
As to `CNNCc1ccc(C(=O)NC(C)C)cc1` [procarbazine], the “activity against brain tumors” value in series [5] was “results comparable to adjuvant BCNU”.
Take `Cn1nnc2c(C(N)=O)ncn2c1=O` [temozolomide, 3,4-dihydro-3-methyl-4-oxoimidazo-[5,1-d]-1,2,3,4-tetrazin-8-carboximide]: in [6], the clinical response was 21%. Moreover, the side effect entry in [7] is “nausea and vomiting”. In [8], the “solubility (in words)” value is recorded as “marked insolubility; also recorded: poor solubility”. In addition, the “activity against human CNS xenografts” value in series [9] was “activity of temozolomide against a series of human CNS xenografts”. Also, the clinical responses in series [10] was 17%. The peak serum concentrations entry in series [11] was “approximately 10 mg/L”. In addition, the “penetration into the CSF (CSF to plasma AUC zero to infinity ratio)” value is given as 41% to 44 in series [12] and 29.8% in series [14]. Besides, the “activity against murine tumors” value in series [13] is on record as “activity against a spectrum of murine tumors”. Also, the dose-limiting toxicity result (Phase I and II, five-day regimen) is on record as “dose-limiting myelosuppression; also recorded: dose-limiting stem cell toxicity”; the dose-limiting toxicity result under setting [16] is recorded as “dose-limiting myelosuppression”. Under “Phase I and II, five-day regimen, including high-grade glioma”, the anti-neoplastic activity result is “intriguing anti-neoplastic activity”. Further, the antineoplastic activity entry under setting [16] was “trivial antineoplastic activity”. In addition, the “effective concentration in vitro” value in series [15] is reported as 0.1 mM.
